Measured values reported in US8247211B2, “Glycopeptide antibiotics” (American Cyanamid Company, priority 2001, dated 2012).

Columns and labels:
Assay in all cases: In vitro antibacterial evaluation: minimum inhibitory concentration (MIC), broth dilution method
Type in all cases: cell-based
Enterococcus sp. = settings: 18 hours at 35° C.
How it was run: (§1)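 Broth dilution per NCCLS M7-A2 in Muller-Hinton II […], inoculum 5×10^5 CFU/mL, antibiotic tested over 64-0.06 μg/mL. MIC is taken as the lowest concentration that inhibits growth. Panel includes recent clinical isolates resistant to methicillin, penicillin and/or vancomycin.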

Escherichia coli = settings: 18 hours at 35° C.
How it was run: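 Inoculum: 5×10^5 CFU/mL. Range: 64-0.06 μg/mL. Medium: Muller-Hinton II […]; NCCLS M7-A2 broth dilution. Endpoint: lowest concentration inhibiting growth. Strains include methicillin-, penicillin- and/or vancomycin-resistant clinical isolates.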

Staphylococcus sp. = system: Staphylococcus sp.
How it was run: as §1

Streptococcus sp. = settings: 18 hours at 35° C.
How it was run: as §1

[1] = broth dilution, inoculum 5×10^5 CFU/mL

CC(c1ccccc1)C1NC(=O)CNC(=O)C(CO)NC(=O)C(C(O)C2CNC(=N)N2C2OC(CO)C(O)C(O)C2O)NC(=O)C(C(O)C2CNC(=N)N2)NC(=O)C(Cc2ccc(OC3OC(CO)C(OC4OC5COC6(CCSCC6)OC5C(O)C4O)C(O)C3O)cc2)NC1=O (stereo not drawn) [Example 217, Cyclo[glycyl-β-methylphenylalanyl-O-[4-O-[4,6-O-(tetrahydrothiopyran-4-ylidene)hexopyranosyl]hexopyranosyl]tyrosyl-3-(2-iminoimidazolidin-4-yl)seryl-3-(3-hexopyranosyl-2-iminoimidazolidin-4-yl)serylseryl]]
0.5 µg/mL: MIC Streptococcus pneumoniae (GC 4565) (Streptococcus sp.; Streptococcus pneumoniae (GC 4565)) | MIC Streptococcus pneumoniae (GC 4565) (Streptococcus sp.; [1])
1 µg/mL: MIC Coagulase Negative Staphylococcus (GC 4548) (Staphylococcus sp.; strain GC 4548) | MIC Streptococcus pneumoniae (ATCC 6301) (Streptococcus sp.; Streptococcus pneumoniae (ATCC 6301)) | MIC Streptococcus pyogenes (GC 4563) (Streptococcus sp.; Streptococcus pyogenes (GC 4563)) | MIC Streptococcus pneumoniae (ATCC 6301) (Streptococcus sp.; [1]) | MIC Streptococcus pyogenes (GC 4563) (Streptococcus sp.; [1])
8 µg/mL: MIC Enterococcus faecium (GC 4557) (Enterococcus sp.; Enterococcus faecium (GC 4557)) | MIC Enterococcus faecium (GC 4557) (Enterococcus sp.; [1]) | MIC Staphylococcus aureus (GC 3053) (Staphylococcus sp.; strain GC 3053) | MIC Staphylococcus aureus (GC 4544) (Staphylococcus sp.; strain GC 4544) | MIC Coagulase Negative Staphylococcus (GC 4551) (Staphylococcus sp.; strain GC 4551)
16 µg/mL: MIC Enterococcus avium (GC 4558) (Enterococcus sp.; Enterococcus avium (GC 4558)) | MIC Enterococcus faecalis (ATCC 29212) (Enterococcus sp.; Enterococcus faecalis (ATCC 29212)) | MIC Enterococcus faecalis (GC 2242) (Enterococcus sp.; Enterococcus faecalis (GC 2242)) | MIC Enterococcus faecalis (GC 2691) (Enterococcus sp.; Enterococcus faecalis (GC 2691)) | MIC Enterococcus faecalis (GC 4552) (Enterococcus sp.; Enterococcus faecalis (GC 4552)) | MIC Enterococcus faecalis (GC 6189) (Enterococcus sp.; Enterococcus faecalis (GC 6189)) | MIC Enterococcus faecium (GC 2243) (Enterococcus sp.; Enterococcus faecium (GC 2243)) | MIC Enterococcus faecium (GC 4556) (Enterococcus sp.; Enterococcus faecium (GC 4556)) | MIC Enterococcus avium (GC 4558) (Enterococcus sp.; [1]) | MIC Enterococcus faecalis (ATCC 29212) (Enterococcus sp.; [1]) | MIC Enterococcus faecalis (GC 2242) (Enterococcus sp.; [1]) | MIC Enterococcus faecalis (GC 2691) (Enterococcus sp.; [1]) | MIC Enterococcus faecalis (GC 4552) (Enterococcus sp.; [1]) | MIC Enterococcus faecalis (GC 6189) (Enterococcus sp.; [1]) | MIC Enterococcus faecium (GC 2243) (Enterococcus sp.; [1]) | MIC Enterococcus faecium (GC 4556) (Enterococcus sp.; [1])
4 µg/mL: MIC Staphylococcus aureus (ATCC 29213) (Staphylococcus sp.; strain ATCC 29213) | MIC Staphylococcus aureus (GC 1131) (Staphylococcus sp.; strain GC 1131) | MIC Staphylococcus aureus (GC 3051) (Staphylococcus sp.; strain GC 3051) | MIC Staphylococcus aureus (GC 4541) (Staphylococcus sp.; strain GC 4541) | MIC Staphylococcus aureus (GC 4542) (Staphylococcus sp.; strain GC 4542) | MIC Staphylococcus aureus (GC 4545) (Staphylococcus sp.; strain GC 4545) | MIC Coagulase Negative Staphylococcus (GC 4547) (Staphylococcus sp.; strain GC 4547)
0.25 µg/mL: MIC Streptococcus pneumoniae (GC 1894) (Streptococcus sp.; Streptococcus pneumoniae (GC 1894)) | MIC Streptococcus pneumoniae (GC 1894) (Streptococcus sp.; [1])
2 µg/mL: MIC Escherichia coli (GC 4560) (Escherichia coli; Escherichia coli (GC 4560)) | MIC Staphylococcus aureus-SMITH (GC 4543) (Staphylococcus sp.; strain GC 4543) | MIC Staphylococcus haemolyticus (GC 4546) (Staphylococcus sp.; strain GC 4546) | MIC Coagulase Negative Staphylococcus (GC 4549) (Staphylococcus sp.; strain GC 4549) | MIC Streptococcus agalactiae (GC 4564) (Streptococcus sp.; Streptococcus agalactiae (GC 4564)) | MIC Streptococcus agalactiae (GC 4564) (Streptococcus sp.; [1])
64 µg/mL: MIC Escherichia coli (ATCC 25922) (Escherichia coli; Escherichia coli (ATCC 25922))
32 µg/mL: MIC Enterococcus faecalis (GC 3059) (Enterococcus sp.; Enterococcus faecalis (GC 3059)) | MIC Enterococcus faecalis (GC 4553) (Enterococcus sp.; Enterococcus faecalis (GC 4553)) | MIC Enterococcus faecalis (GC 4554) (Enterococcus sp.; Enterococcus faecalis (GC 4554)) | MIC Enterococcus faecalis (GC 3059) (Enterococcus sp.; [1]) | MIC Enterococcus faecalis (GC 4553) (Enterococcus sp.; [1]) | MIC Enterococcus faecalis (GC 4554) (Enterococcus sp.; [1]) | MIC Escherichia coli (GC 4559) (Escherichia coli; Escherichia coli (GC 4559))
